Key:
Assay in all cases: relative viability (nuclei count vs DMSO), 5 days (fraction); higher = more cells survive
Salubrinal + Vorinostat = compound: O=C(/C=C/c1ccccc1)NC(NC(=S)Nc1cccc2cccnc12)C(Cl)(Cl)Cl [Salubrinal] + O=C(CCCCCCC(=O)Nc1ccccc1)NO [Vorinostat] (partner 1 µM)
Method in brief: (§1)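 A single step with final 0.05% Triton X-100, 1% formaldehyde and 1 ug/ml Hoechst fixed the cells and stained nuclei 5 days after treatment. Lung cancer cell lines in 1536-well plates had been treated by pin tool the day after seeding with one drug alone or a fixed anchor-drug dose plus five library-drug doses (not always all listed) in √10 steps, and nuclei were counted on 4× images. Relative viability is the ratio of nuclei in treated wells to nuclei in vehicle wells, taken as the median of duplicate plates.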

[1] = compound: Cc1ccc2nc(NCCN)c3ncc(C)n3c2c1 + N=C(N)NC(=N)NCCc1ccccc1 [Phenformin] (partner 250 µM)
Method in brief: as §1

[2] = compound: Cc1ccc2nc(NCCN)c3ncc(C)n3c2c1 + CC(=O)Nc1cccc(-n2c(=O)n(C3CC3)c(=O)c3c(Nc4ccc(I)cc4F)n(C)c(=O)c(C)c32)c1 [Trametinib] (partner 0.02 µM)
Method in brief: as §1

[3] = compound: Cc1ccc2nc(NCCN)c3ncc(C)n3c2c1 + Cc1nc(NC(=O)N2CCC[C@H]2C(N)=O)sc1-c1ccnc(C(C)(C)C(F)(F)F)c1 [Alpelisib] (partner 2 µM)
Method in brief: as §1

Cell Line	relative viability (Salubrinal + Vorinostat; first compound 0.08 µM)	relative viability (Salubrinal + Vorinostat; first compound 0.253 µM)	relative viability (Salubrinal + Vorinostat; first compound 0.8 µM)	relative viability (Salubrinal + Vorinostat; first compound 2.53 µM)	relative viability (Salubrinal + Vorinostat; first compound 8 µM)	relative viability ([1]; first compound 0.04 µM)	relative viability ([1]; first compound 0.1265 µM)	relative viability ([1]; first compound 0.4 µM)	relative viability ([1]; first compound 1.265 µM)	relative viability ([1]; first compound 4 µM)	relative viability ([2]; first compound 0.04 µM)	relative viability ([2]; first compound 0.1265 µM)	relative viability ([2]; first compound 0.4 µM)	relative viability ([2]; first compound 1.265 µM)	relative viability ([2]; first compound 4 µM)	relative viability ([3]; first compound 0.04 µM)	relative viability ([3]; first compound 0.1265 µM)	relative viability ([3]; first compound 0.4 µM)	relative viability ([3]; first compound 1.265 µM)	relative viability ([3]; first compound 4 µM)
NCI-H1395	0.617	0.768	1.09	0.901	0.558	0.45	0.498	0.412	0.419	0.46	0.977	0.983	0.989	0.828	0.878	1.05	1.3	1.08	1.19	0.888
NCI-H1437	0.841	0.787	0.812	0.814	0.714	0.289	0.298	0.327	0.298	0.278	0.578	0.463	0.445	0.415	0.381	0.926	0.914	1.02	0.904	0.907
NCI-H1651	0.597	0.478	0.669	0.527	0.546	0.351	0.273	0.315	0.358	0.352	0.842	0.666	0.844	0.865	0.829	0.996	0.885	0.905	0.936	0.834
NCI-H1666	0.99	0.886	0.99	1.16	1.11	0.574	0.573	0.521	0.495	0.535	0.907	0.796	0.773	0.863	0.8	0.836	0.906	1.13	0.945	0.613
NCI-H1734	0.834	0.801	0.916	0.77	0.745	0.425	0.417	0.355	0.38	0.389	0.719	0.632	0.755	0.638	0.707	0.699	0.634	0.668	0.605	0.685
NCI-H1755	0.815	0.831	0.973	0.911	0.745	0.661	0.665	0.581	0.625	0.583	0.757	0.809	0.769	0.8	0.776	0.978	0.928	0.898	0.962	0.908
NCI-H1793	0.942	0.57	0.995	0.814	0.719	0.435	0.422	0.272	0.324	0.32	0.371	0.363	0.525	0.363	0.4	0.707	0.677	0.637	0.654	0.693
NCI-H1915	0.516	–	0.614	0.521	0.471	0.359	0.384	–	0.377	0.359	0.304	0.297	0.28	0.296	0.294	0.999	–	1.1	1.02	1.07
NCI-H1944	0.69	0.54	0.662	0.504	0.645	0.201	0.196	0.201	0.187	0.195	0.432	0.476	0.401	0.381	0.427	0.821	0.832	0.869	0.823	0.909
NCI-H1975	0.742	0.616	0.703	0.696	0.676	0.415	0.394	0.432	0.414	0.355	0.329	0.376	0.369	0.329	0.321	0.618	0.551	0.677	0.643	0.5
NCI-H1993	0.939	0.592	0.805	–	0.867	0.506	0.514	0.591	0.552	0.495	0.421	0.632	0.64	0.34	0.46	0.69	0.666	0.649	0.625	0.693
NCI-H2009	0.815	0.785	0.696	0.693	0.657	0.514	0.399	0.489	0.401	0.393	0.309	0.251	0.286	0.273	0.28	1.23	1.17	1.16	1.19	1.05
NCI-H2023	0.9	0.7	0.746	0.737	0.613	0.466	0.409	0.434	0.437	0.349	0.595	0.561	0.661	0.574	0.32	0.637	0.573	0.616	0.563	0.549
NCI-H2085	0.832	0.785	0.837	0.771	0.878	0.817	0.762	0.711	0.722	0.744	1.03	0.63	0.502	0.491	0.499	1.01	0.943	0.961	1.06	1.11
